Results: patent US20250019373A1, “ARYL OR HETEROARYL DERIVATIVE, AND PHARMACEUTICAL COMPOSITION COMPRISING SAME AS ACTIVE INGREDIENT FOR PREVENTION OR TREATMENT OF KINASE-RELATED DISEASES” (VORONOI INC., priority 2021, published 2025)

Columns and labels:
RIPK1 = target: T1, RIPK1 (Homo sapiens, UniProt Q13546); test: RIPK1 inhibitory activity, DiscoverX scanMAX kinase panel (% control); type: binding; details: drug concentration 1 μM in DMSO, <35% counted as active, read-out: control percentage (% control) RIPK1
T1 construct: purchased DiscoverX
T1 sequence (Q13546 1-671): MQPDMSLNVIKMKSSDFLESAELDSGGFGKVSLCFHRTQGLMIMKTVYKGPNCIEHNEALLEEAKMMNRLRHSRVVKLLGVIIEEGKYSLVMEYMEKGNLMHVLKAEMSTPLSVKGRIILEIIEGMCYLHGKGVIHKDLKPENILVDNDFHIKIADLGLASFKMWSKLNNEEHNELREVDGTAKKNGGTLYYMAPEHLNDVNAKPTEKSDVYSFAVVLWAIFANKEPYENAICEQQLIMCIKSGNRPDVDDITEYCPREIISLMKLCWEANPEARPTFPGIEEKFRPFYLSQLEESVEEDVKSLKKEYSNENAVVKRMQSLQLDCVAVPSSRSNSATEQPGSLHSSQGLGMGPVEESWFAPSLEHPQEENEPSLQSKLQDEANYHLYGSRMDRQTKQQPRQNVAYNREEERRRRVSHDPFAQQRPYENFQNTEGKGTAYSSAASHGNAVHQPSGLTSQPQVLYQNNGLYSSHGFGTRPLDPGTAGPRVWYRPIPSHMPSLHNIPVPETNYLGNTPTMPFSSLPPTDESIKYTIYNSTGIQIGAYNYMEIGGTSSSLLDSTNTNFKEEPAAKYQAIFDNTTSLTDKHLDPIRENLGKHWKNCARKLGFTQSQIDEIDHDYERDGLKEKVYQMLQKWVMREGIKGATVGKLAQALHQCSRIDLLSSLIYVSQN
Method: To evaluate the RIPK1 inhibitory activity of a compound according to the present invention, the following experiment was performed. Specifically, for Examples 3 and 30 selected from the compounds of Examples of the present invention, enzyme (kinase) selectivity was measured by DiscoverX, and the experiment was conducted using a panel for scanMAX™ kinase analysis. Here, the enzyme was treated with a drug having a concentration of 1 μM in DMSO, and a control percentage (% control) was determined in the same manner as Formula 1 below.
Here, the positive control refers to a compound showing a control percentage of 0%, and the negative control is DMSO showing a control percentage of 100%. In addition, in terms of the enzyme selectivity of the present invention, when the control percentage with respect to an enzyme is <35% (i.e., less than 35%), it was determined that the compound has activity against the corresponding enzyme.

HT-29 cells = test: Cell necrosis inhibitory activity under necroptosis-inducing conditions (TNF-α, Z-VAD-FMK, LCL161) in HT-29 cells, Cell Titer-Glo; type: cell-based; details: Homo sapiens, 100 ng/mL TNF-α + 25 μM Z-VAD-FMK + Smac mimetic LCL161, 24 hours, cell viability
Summary of the method: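 HT-29 cells seeded 24 h, then necroptosis induced with 100 ng/mL TNF-α, 25 μM Z-VAD-FMK and 10 μM LCL161 for 10 min before compound (11 points, 3-fold, top 0.1 or 1 μM; 0.05% DMSO). After 24 h, viability by CellTiter-Glo luminescence relative to untreated controls gave EC50 (nM).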

remaining binding at 1 µM (RIPK1)	SMILES	EC50 (HT-29 cells)
0%	COc1ncc(-c2ccc3nc(N)nn3c2)cc1NC(=O)N1OCC[C@H]1c1ccccc1 [Example 30, (S)-N-(5-(2-amino-[1,2,4]triazolo[1,5-a]pyridin-6-yl)-2-methoxypyridin-3-yl)-3-phenylisoxazolidine-2-carboxamide]	3.8 nM
1%	COc1ncc(-c2ccc3nc(NC(C)=O)cn3n2)cc1NC(=O)N1OCC[C@H]1c1ccccc1 [Example 3, (S)-N-(5-(2-acetamidoimidazo[1,2-b]pyridazin-6-yl)-2-methoxypyridin-3-yl)-3-phenylisoxazolidine-2-carboxamide]	0.6 nM
